Values joined by “and” are separate entries in the source; they are usually repeats but may differ in a detail not shown here. Equal values may be shown once. “Also recorded” adds a separate entry of the source. Read-outs that look alike come from different tables or passages of the source.
What was measured:
[1] = target: T1, porcine brain tubulin (Sus scrofa, UniProt P02550+P02554); assay: In vitro tubulin polymerization assay (turbidity at 340 nm); assay type: biochemical; details: 10 µM compound; for Initial Rate of the Exponential Phase, Signal Response / Lag Time: 37 °C, 90 min, turbidity 340 nm
T1 construct: The standard reaction mixture contains 95 μL of 4 mg.mL^−1 porcine brain tubulin; purchased Cytoskeleton, USA BK004P; host or cells: porcine brain (tissue-purified)
Experimental: The ability of the compounds to modulate the polymerization of tubulin was evaluated in vitro on purified porcine tubulin by spectrophotometric monitoring at 340 nm and compared to those of nocodazole and paclitaxel as reference compounds. Nocodazole which inhibits the assembly of tubulin was used as a positive control, and paclitaxel which is a stabilizing agent of tubulin polymerization was used as a negative control. Tubulin polymerization was determined with 10 µM of the reference drugs and compounds 1a–l for 90 min.
Figure 3 Porcine brain tubulin (final […]) in presence of PB-GTP buffer, 10 µM paclitaxel, 10 µM nocodazole and 10 µM of the assayed compounds. Reaction was conducted in thermostated spectrophotometric chamber at 37 °C for 90 min. Turbidity was measured at 340 nm every 30 s.
The effect of the studied compounds on the polymerization of purified porcine tubulin was monitored using a commercial assay kit (cat. number BK004P), purchased from Cytoskeleton, USA. Stock solutions of porcine brain tubulin solutions (4 mg.mL^−1) were prepared immediately prior to use in general tubulin buffer (80 mM piperazine-N,N′-bis(2-ethanesulfonic acid, PIPES) pH 6.9, 2 mM MgCl2 and 0.5 mM (ethylene glycol-bis(β-aminoethyl ether)-N,N,N′,N′-tetraacetic acid, EGTA) containing 1 mM guanosine triphosphate (GTP) (G-PEM buffer). Stock solutions of Paclitaxel (100 µM), Noconazole (100 µM) or tested samples (100 µM) in G-PEM buffer containing 5% DMSO were prepared.
The standard reaction mixture contains 95 μL of 4 mg.mL^−1 porcine brain tubulin and 5 μL of standards, test samples or G-PEM buffer only (control). Then, the microplate with loaded reaction mixtures was incubated for 90 min. at 37 °C in a thermostated spectrophotometer chamber. The turbidity of the mixtures was measured at 340 nm every 30 s. The experiment was performed on SpectroStar Nano (BMG Labtech, Aylesbury, UK) equipped with software for kinetic measurements.

[2] = tested on: MCF-7 (ER-positive breast adenocarcinoma); assay: MTT cytotoxicity assay, MCF-7; assay type: cell-based, human; details: for IC50: Homo sapiens, read-out: IC50 MCF-7
Excerpt: (§1) A standard colorimetric MTT assay was used to evaluate the anticancer activity of the newly synthesized 1H-benzimidazol-2-yl hydrazone derivatives against human malignant cell lines of different histological origin, namely MCF-7 (ER-positive breast adenocarcinoma) and AR-230 (BCR-ABL positive chronic myeloid leukemia), using podophyllotoxin as a reference drug. For each compound, the half-inhibitory concentrations (IC50) were estimated based on the derived “dose–response” relationships following 72h exposure time. In addition, their cytotoxicity was measured against normal fibroblast cells 3T3 (mouse embryo fibroblasts) and CCL-1 (murine fibroblasts) and respective cancer selectivity indices (CSI) were calculated (Table 2).
(§2) The cell lines MCF-7, AR-231 and CCL-1 were obtained from the German Collection of Microorganisms and Cell Cultures. Cells were kept in a controlled environment—RPMI-1640 medium supplemented with 10% fetal bovine serum (FBS) and 2mM L-glutamine, at 37 °C in an incubator with 5% CO2 humidified atmosphere.
(§3) MTT-based colorimetric assay was used for evaluating the cell viability. The method is based on the reduction of the yellow tetrazolium compound MTT to water-insoluble, violet formazan crystals. MCF-7, AR-231, and CCL-1 cells were seeded in 96-well, flatbottomed microplates (100 µL/well) at a density of 3 × 10^5 cells per mL and allowed to grow for 24 h prior the exposure to the studied compounds. Cells were exposed to the tested agents for 72 h. After the exposure period MTT solution (10 mg.mL^−1) aliquots (100 µL/well) were added to each well. The plates were further incubated for 4 h at 37 °C and the MTT-formazan crystals formed were dissolved through addition of […] of 5% HCOOH in 2-propanol. The absorption was measured at 580 nm using a microplate reader (Labexim LMR-1).

[3] = tested on: AR-230 (BCR-ABL positive chronic myeloid leukemia); assay: MTT cytotoxicity assay, AR-230; assay type: cell-based, human; details: for IC50: Homo sapiens, read-out: IC50 AR-230
Excerpt: as §1, §2, §3

[4] = tested on: 3T3 (mouse embryo fibroblasts); assay: Cytotoxicity against normal 3T3 cells; assay type: cell-based; details: normal mouse embryo fibroblast cell line; ± SD
Excerpt: as §1
Evaluation of the cytotoxic activity of some of the compounds was performed on 3T3 (mouse embryo fibroblasts) cell line. The cells were cultivated in Dulbecco′s Modified Eagle′s Medium (DMEM), containing 10% FBS, with supplements L-glutamine, sodium pyruvate, antibiotic and non-essential amino acids, and allowed to adhere overnight at 37 °C in an incubator with 5% CO2 humidified atmosphere. At the end of the incubation, the cells were treated with different concentrations of the compounds in a final volume of 100 μL/well in triplicate wells for each treatment for 24 h at 37 °C in a CO2 incubator. All studies were repeated at least twice. Control cells were grown in DMEM containing 10% FBS and allowed to stabilize overnight at 37 °C in a CO2 incubator and left without treatment.

[5] = tested on: CCL-1 (murine fibroblasts); assay: MTT cytotoxicity against normal CCL-1 cells; assay type: cell-based; details: Mus musculus, 72 h, read-out: IC50 CCL-1
Excerpt: as §1, §2, §3

[6] = normal murine fibroblast cell line, MTT, ± SD

T1 sequence (P02550 whole entry): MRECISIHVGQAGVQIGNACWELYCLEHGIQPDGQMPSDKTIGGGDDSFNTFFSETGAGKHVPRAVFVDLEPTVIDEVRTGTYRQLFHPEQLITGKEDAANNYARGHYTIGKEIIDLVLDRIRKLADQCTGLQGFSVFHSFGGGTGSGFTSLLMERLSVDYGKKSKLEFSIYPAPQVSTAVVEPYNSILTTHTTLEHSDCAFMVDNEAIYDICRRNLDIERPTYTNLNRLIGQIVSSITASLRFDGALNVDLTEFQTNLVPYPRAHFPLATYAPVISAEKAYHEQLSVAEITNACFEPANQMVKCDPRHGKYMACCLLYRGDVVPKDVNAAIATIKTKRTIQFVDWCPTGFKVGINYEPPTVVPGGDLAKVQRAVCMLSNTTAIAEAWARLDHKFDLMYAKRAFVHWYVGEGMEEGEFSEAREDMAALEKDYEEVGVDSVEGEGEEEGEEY
T1 sequence (P02554 whole entry): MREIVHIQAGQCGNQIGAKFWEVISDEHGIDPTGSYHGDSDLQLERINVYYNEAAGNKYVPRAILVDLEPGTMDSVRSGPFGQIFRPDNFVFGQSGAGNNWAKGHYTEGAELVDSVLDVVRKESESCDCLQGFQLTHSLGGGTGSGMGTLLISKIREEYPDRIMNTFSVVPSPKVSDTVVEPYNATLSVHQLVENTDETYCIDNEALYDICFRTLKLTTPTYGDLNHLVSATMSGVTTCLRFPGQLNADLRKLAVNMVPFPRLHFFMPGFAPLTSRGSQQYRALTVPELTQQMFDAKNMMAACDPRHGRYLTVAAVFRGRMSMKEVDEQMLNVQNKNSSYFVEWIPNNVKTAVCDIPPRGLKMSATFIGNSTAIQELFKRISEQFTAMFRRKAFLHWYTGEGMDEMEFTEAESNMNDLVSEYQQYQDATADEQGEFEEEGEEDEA

SMILES	Initial Rate of the Exponential Phase, Signal Response [1] [a.u.s^−1 × 10^−6]	Lag Time [1]	IC50 ([2]; MCF7, MTT, 72 h exposure, ± SD) [µM]	CSI MCF-7 (cancer selectivity index) ([2]; IC50(3T3)/IC50(MCF-7))	IC50 ([3]; MTT, 72 h exposure, ± SD) [µM]	CSI AR230 (cancer selectivity index) ([3]; IC50(3T3)/IC50(AR-230))	IC50 [4] [µM]	CSI AR230 (cancer selectivity index) ([3]; IC50(CCL-1)/IC50(AR-230))	IC50 [5, 6] [µM]	lag time of tubulin polymerization [1]	CSI MCF-7 (cancer selectivity index) ([2]; IC50(CCL-1)/IC50(MCF-7))	IC50 ([2]; MCF7, 72 h) [µM]	IC50 ([3]; 72 h) [µM]	IC50 ([5]; Fibroblast) [µM]
Oc1ccccc1/C=N/Nc1nc2ccccc2[nH]1 [Compound 1a]	8.77	1390 s	18.7 ± 1.1	≈11	21.2 ± 2.3	≈9.6	204 ± 5.1	–	–	–	–	–	–	–
Oc1cccc(/C=N/Nc2nc3ccccc3[nH]2)c1O [Compound 1b]	13.4	1400 s and 1461 s	64.5 ± 6.2	≈1	3.3 ± 0.3	≈18.4	61.1 ± 1.8	–	–	–	–	–	–	–
Oc1ccc(/C=N/Nc2nc3ccccc3[nH]2)cc1O [Compound 1d]	13.3	1400 s and 1407 s	–	–	61.8 ± 5.7	–	–	≈1.8	113 ± 9.1	–	–	–	–	–
COc1ccc(/C=N/Nc2nc3ccccc3[nH]2)cc1 [Compound 1f]	17.1	807 s	11.2 ± 1.3	≈31.6	19.4 ± 2.2	≈18.2	355 ± 5.3	–	–	–	–	–	–	–
COc1cccc(OC)c1/C=N/Nc1nc2ccccc2[nH]1 [Compound 1g]	10.7	1000 s	7.9 ± 2.1	≈33	11.5 ± 1	≈22.6	261 ± 4.7	–	–	–	–	–	–	–
COc1cc(/C=N/Nc2nc3ccccc3[nH]2)cc(OC)c1 [Compound 1h]	23.1	1090 s	4.6 ± 0.7	≈72.8	5.9 ± 0.9	≈56.7	335 ± 7	–	–	–	–	–	–	–
COc1cc(/C=N/Nc2nc3ccccc3[nH]2)cc(OC)c1OC [Compound 1i]	20.6	988 s	1.2 ± 0.2	≈59.1	1.7 ± 0.3	≈41.7	71 ± 2.4	–	–	–	–	–	–	–
COc1cccc(/C=N/Nc2nc3ccccc3[nH]2)c1O [Compound 1j]	16.9	1200 s	6.4 ± 1.2	–	1.1 ± 0.2	–	–	≈ 363; also recorded: ≈363.6	> 400	more than 20 min	> 50	–	–	–
COc1ccc(/C=N/Nc2nc3ccccc3[nH]2)c(O)c1 [Compound 1k]	9.7	1295 s	1.5 ± 0.3	–	0.9 ± 0.1	–	–	≈113	102 ± 7.3	more than 20 min	≈67.8	–	–	–
COc1ccc(/C=N/Nc2nc3ccccc3[nH]2)cc1O [Compound 1l]	16	no lag phase	27.6 ± 3.5	≈4.8	16.8 ± 3.4	≈8	134.7 ± 1.3	–	–	–	–	–	–	–
COc1cc([C@@H]2c3cc4c(cc3[C@H](O)[C@H]3COC(=O)[C@H]23)OCO4)cc(OC)c1OC [Podophyllotoxin, reference compound]	–	–	–	–	–	–	–	≈5.7	–	–	≈9	0.3 ± 0.06	0.47 ± 0.09	2.7
COC(=O)Nc1nc2ccc(C(=O)c3cccs3)cc2[nH]1 [nocodazole, reference compound]	52	935 s	–	–	–	–	–	–	–	–	–	–	–	–
CC(=O)O[C@H]1C(=O)[C@@]2(C)[C@H]([C@H](OC(=O)c3ccccc3)[C@]3(O)C[C@H](OC(=O)[C@H](O)[C@@H](NC(=O)c4ccccc4)c4ccccc4)C(C)=C1C3(C)C)[C@]1(OC(C)=O)CO[C@@H]1C[C@@H]2O [paclitaxel, reference compound]	167	151 s	–	–	–	–	–	–	–	–	–	–	–	–
